Laboratory results taken from ChEMBL document CHEMBL5620412, “Discovery of benzofuran-2-carboxylic acid derivatives as lymphoid tyrosine phosphatase (LYP) inhibitors for cancer immunotherapy” (Eur J Med Chem, 2023).
Active and inactive are the calls of the source. No cut-off for these calls is given here.

Assays:
Jurkat T [1] = assay: Activation of TCR signaling in human Jurkat T cells assessed as increase in ERK phosphorylation preincubated with compound for 1 hrs followed by anti-CD3 stimulation and measured after 45 mins by immunoblot analysis; type: cell-based; conditions: filed as activator, time 105.0 min
MC-38 [2] = assay: Antitumor immunity against mouse MC-38 cells implanted in syngenic C57BL/6J mouse model assessed as inhibition of M2 polarization of tumor associated macrophage in spleen at 50 mg/kg, IG administered twice daily for 14 days by flow cytometric analysis; type: functional, organism-based; conditions: time 14.0 day
Jurkat T [3] = assay: Activation of TCR signaling in […] transfected human Jurkat T cells assessed as increase in ERK phosphorylation preincubated with compound for 1 hrs followed by anti-CD3 stimulation and measured after 45 mins by immunoblot analysis; type: cell-based; conditions: time 105.0 min
MC-38 [4] = assay: Antitumor immunity against mouse MC-38 cells implanted in syngenic C57BL/6J mouse model assessed as upregulation of PD-L1 expression in macrophages at 50 mg/kg, IG administered twice daily for 14 days by flow cytometric analysis; type: functional, organism-based; conditions: time 14.0 day
MC-38 [5] = assay: Antitumor immunity against mouse MC-38 cells implanted in syngenic C57BL/6J mouse model assessed as increase in CD45+ cell proportion in tumor at 50 mg/kg, IG administered twice daily for 14 days by flow cytometric analysis; type: functional, organism-based; conditions: time 14.0 day
MC-38 [6] = assay: Antitumor activity against mouse MC-38 cells implanted in syngenic C57BL/6J mouse model assessed as tumor growth inhibition at 50 mg/kg, IG administered twice daily for 14 days relative to control; type: functional; conditions: MC-38, po, 336 h, time 14 day, read-out: TGI
[7] = Upregulation of PD-L1 expression in mouse MC-38 cells at 20 uM incubated for 48 hrs by flow cytometric analysis (reference value: 23.3%); type: functional
MC-38 [8] = assay: Antitumor immunity against mouse MC-38 cells implanted in syngenic C57BL/6J mouse model assessed as increase in NKT cell proportion at 50 mg/kg, IG administered twice daily for 14 days; type: functional, organism-based; conditions: time 14.0 day
MC-38 [9] = assay: Antitumor immunity against mouse MC-38 cells implanted in syngenic C57BL/6J mouse model assessed as upregulation of PD1 expression in CD8+ T cells at 50 mg/kg, IG administered twice daily for 14 days by flow cytometric analysis; type: functional, organism-based; conditions: time 14.0 day
[10] = Toxicity in C57BL/6J syngenic mouse implanted with mouse MC-38 cells assessed as effect on body weight at 50 mg/kg, IG administered twice daily for 14 days; type: organism-based; conditions: in vivo, po, 336 h, time 14 day
MC-38 [11] = assay: Antitumor activity against mouse MC-38 cells implanted in syngenic C57BL/6J mouse model assessed as tumor growth inhibition at 50 mg/kg, IG administered twice daily for 14 days in presence of anti-PD-L1 antibody relative to control; type: functional; conditions: MC-38, po, 336 h, time 14 day, read-out: TGI
MC-38 [12] = assay: Antitumor immunity against mouse MC-38 cells implanted in syngenic C57BL/6J mouse model assessed as increase in Ki67 positive CD8+ T cells at 50 mg/kg, IG administered twice daily for 14 days by Ki67 staining based flow cytometric analysis; type: functional, organism-based; conditions: time 14.0 day
MC-38 [13] = assay: Antiproliferative activity against mouse MC-38 cells assessed as reduction in cell viability upto 4 uM incubated for 72 hrs by CCK8 assay; type: functional, cell-based
Jurkat T [14] = assay: Activation of TCR signaling in […] transfected human Jurkat T cells assessed as increase in LCK phosphorylation preincubated with compound for 1 hrs followed by anti-CD3 stimulation and measured after 45 mins by immunoblot analysis; type: cell-based; conditions: time 105.0 min
Jurkat T [15] = assay: Activation of TCR signaling in human Jurkat T cells assessed as increase in LCK phosphorylation preincubated with compound for 1 hrs followed by anti-CD3 stimulation and measured after 45 mins by immunoblot analysis; type: cell-based; conditions: filed as activator, time 105.0 min
MC-38 [16] = assay: Antitumor immunity against mouse MC-38 cells implanted in syngenic C57BL/6J mouse model assessed as increase in CD8+ T cell proportion in tumor at 50 mg/kg, IG administered twice daily for 14 days by flow cytometric analysis; type: functional, organism-based; conditions: time 14.0 day
MC-38 [17] = assay: Antitumor immunity against mouse MC-38 cells implanted in syngenic C57BL/6J mouse model assessed as increase in tumor infiltration of CD8+ T cells at 50 mg/kg, IG administered twice daily for 14 days by DAPI staining based immunofluorescence analysis; type: functional, organism-based; conditions: time 14.0 day
[18] = Upregulation of PD-L1 expression in mouse MC-38 cells at 10 uM incubated for 48 hrs by flow cytometric analysis (reference value: 23.3%); type: functional
MC-38 [19] = assay: Antitumor activity against mouse MC-38 cells implanted in syngenic C57BL/6J mouse model at 50 mg/kg, IG administered twice daily for 14 days by H&E staining based analysis; type: functional, organism-based; conditions: time 14.0 day
MC-38 [20] = assay: Antitumor immunity against mouse MC-38 cells implanted in syngenic C57BL/6J mouse model assessed as increase in Ki67 positive CD4+ T cells at 50 mg/kg, IG administered twice daily for 14 days by Ki67 staining based flow cytometric analysis; type: functional, organism-based; conditions: time 14.0 day
MC-38 [21] = assay: Antitumor immunity against mouse MC-38 cells implanted in syngenic C57BL/6J mouse model assessed as increase in TNF-alpha expression at 50 mg/kg, IG administered twice daily for 14 days; type: functional, organism-based; conditions: time 14.0 day
MC-38 [22] = assay: Antitumor immunity against mouse MC-38 cells implanted in syngenic C57BL/6J mouse model assessed as increase in M1 tumor associated macrophage proportion in tumor at 50 mg/kg, IG administered twice daily for 14 days by flow cytometric analysis; type: functional, organism-based; conditions: time 14.0 day
MC-38 [23] = assay: Antitumor immunity against mouse MC-38 cells implanted in syngenic C57BL/6J mouse model assessed as inhibition of M2 polarization of tumor associated macrophage in tumor at 50 mg/kg, IG administered twice daily for 14 days by flow cytometric analysis; type: functional, organism-based; conditions: time 14.0 day
MC-38 [24] = assay: Antitumor immunity against mouse MC-38 cells implanted in syngenic C57BL/6J mouse model assessed as upregulation of PD1 expression in CD4+ T cells at 50 mg/kg, IG administered twice daily for 14 days by flow cytometric analysis; type: functional, organism-based; conditions: time 14.0 day
MC-38 [25] = assay: Antitumor immunity against mouse MC-38 cells implanted in syngenic C57BL/6J mouse model assessed as increase in IFN-gamma expression at 50 mg/kg, IG administered twice daily for 14 days; type: functional, organism-based; conditions: time 14.0 day

Row | Compound | Activity (Jurkat T [1]) | Activity (MC-38 [2]) | Activity (Jurkat T [3]) | Activity (MC-38 [4]) | Activity (MC-38 [5]) | inhibition in vivo at 50 mg/kg (MC-38 [6]) [%] | Activity [7] [%] | Activity (MC-38 [8]) | Activity (MC-38 [9]) | Activity [10] | inhibition in vivo at 50 mg/kg (MC-38 [11]) [%] | Activity (MC-38 [12]) | Activity (MC-38 [13]) | Activity (Jurkat T [14]) | Activity (Jurkat T [15]) | Activity (MC-38 [16]) | Activity (MC-38 [17]) | Activity [18] [%] | Activity (MC-38 [19]) | Activity (MC-38 [20]) | further results
1 | O=C(O)c1cc2cc(N(Cc3ccc(OCc4ccccc4)cc3)S(=O)(=O)c3ccc(-c4ccccc4)cc3)ccc2o1 | Active | Active | inactive | Active | Active | 65 | 59.2 | Active | Active | Non-Toxic | 94.3 | Active | inactive | inactive | Active | Active | Active | 46.1 | Active | Active | Activity (MC-38 [21]): Active; Activity (MC-38 [22]): Active; Activity (MC-38 [23]): Active; Activity (MC-38 [24]): Active; Activity (MC-38 [25]): Active
2 | COc1ccc(-c2ccc(CN(c3ccc4oc(C(=O)O)cc4c3)S(=O)(=O)c3ccc(Cl)c([N+](=O)[O-])c3)cc2)cc1 | Active | Active | inactive | Active | Active | 69.6 | 43.6 | Active | Active | Non-Toxic | 94.3 | Active | inactive | inactive | Active | Active | Active | 37.2 | Active | Active | Activity (MC-38 [21]): Active; Activity (MC-38 [22]): Active; Activity (MC-38 [23]): Active; Activity (MC-38 [24]): Active; Activity (MC-38 [25]): Active
